What is called Kb is the affinity of an antagonist, worked out from how it opposes an agonist. Read a low Kb as higher antagonist affinity. One may read the melting point as the temperature, or range, at which the solid turns liquid.

This passage reports Kb and melting point results from patent US10155741B2, “Pyridine or pyrimidine derivatives” (Hoffmann-La Roche Inc., priority 2015, dated 2018).

For the first data set, the target named is T1, human EAAT3 (Homo sapiens, UniProt P43005).
T1 construct: expressed in transfected cells
T1 sequence (P43005 1-524): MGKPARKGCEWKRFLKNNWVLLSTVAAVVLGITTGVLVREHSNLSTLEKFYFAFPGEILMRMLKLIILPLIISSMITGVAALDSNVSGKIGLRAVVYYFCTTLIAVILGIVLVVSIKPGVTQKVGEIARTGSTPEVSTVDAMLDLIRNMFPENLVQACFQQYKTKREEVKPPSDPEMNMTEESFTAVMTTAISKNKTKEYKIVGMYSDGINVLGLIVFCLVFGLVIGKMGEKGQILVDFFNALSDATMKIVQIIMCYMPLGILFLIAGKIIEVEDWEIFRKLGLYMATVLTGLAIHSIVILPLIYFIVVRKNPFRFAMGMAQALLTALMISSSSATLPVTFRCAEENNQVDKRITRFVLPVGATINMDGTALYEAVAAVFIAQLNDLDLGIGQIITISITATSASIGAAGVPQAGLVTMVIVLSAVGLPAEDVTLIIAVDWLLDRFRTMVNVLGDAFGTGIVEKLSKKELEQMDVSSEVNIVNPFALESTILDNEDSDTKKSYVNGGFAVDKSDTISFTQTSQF
Kind of data set: FLIPR Membrane Potential (FMP) assay, antagonist potency at human EAAT3. Format: cell-based. The settings on record: HEK-293 cells stably expressing human EAAT3; L-glutamate as agonist at EC80; antagonist applied 15 min before; Kb by Cheng-Prusoff equation. The procedure:
The FLIPR Membrane Potential (FMP) Assay
HEK-293 cells stably expressing human EAAT3 were seeded at 55 000 cells/well in growth medium (DMEM glutamate free (Invitrogen 11960-044), 1% Pen Strep (10 ml/l GIBCO BRL No 15140-023), 10% FCS non dialysed heat inactivated, 5 mg/l puromycin) in poly-D-lysine treated 96-well black microtiter plates with clear-bottom. After 24 h, the growth medium was removed and 100 μl/well of Krebs buffer (140 mM NaCl, 4.7 mM KCl, 2.5 mM CaCl2, 1.2 mM MgCl2, 11 mM HEPES, 10 mM D-glucose, pH=7.4) added. The cells were then loaded by adding 100 μl/well FMP assay dye (FLIPR Membrane Potential assay reagent, Molecular Devices). The 96-well plates were then incubated at 37° C. for 1 h. The depolarization of the cells will cause more dye to enter in the cells, where it will bind to intracellular proteins and lipids and cause an increase in the fluorescence signal. Antagonist potency at human EAAT3 was determined by using L-glutamate as agonist at a concentration which gives 80% of the maximum response. The antagonists were applied 15 min before the application of the agonist L-glutamate. The assays were performed at room temperature and measurements done by using a Fluorometric Imaging Plate Reader (FLIPR, Molecular Devices) and filter #2. Responses were measured as peak increase in fluorescence minus basal (i.e. fluorescence without addition of L-glutamate). Kb was determined using the Cheng-Prusoff equation Kb=IC50/[1+(A/EC50)], where IC50 is the concentration of the antagonist producing 50% inhibition, A is the concentration of the agonist against which the IC50 is being determined (at EC80) and EC50 is the concentration of the agonist producing 50% […].
The molecule `CC(C)c1ncncc1-c1cc(C(=O)NC2(C)CCS(=O)(=O)C2)cc(-c2ccc(F)cc2)n1` (racemic) [Example 17, (RS)-2-(4-Fluorophenyl)-N-(3-methyl-1,1-dioxothiolan-3-yl)-6-(4-propan-2-yl-pyrimidin-5-yl)-pyridine-4-carboxamide] gave an antagonist dissociation constant (Kb) of 270 nM.
In the case of `CC(C)c1ncncc1-c1cc(C(=O)NC(C)(C)C)cc(-c2ccc(Cl)cc2)n1` [Example 1, N-tert-Butyl-2-(4-chlorophenyl)-6-(4-propan-2-yl-pyrimidin-5-yl)-pyridine-4-carboxamide], the Kb stood at 100 nM.
On to `CC(C)c1ncncc1-c1cc(C(=O)NC(C)(C)C)cc(-c2ccc(F)cc2)n1` [Example 2, N-tert-Butyl-2-(4-fluorophenyl)-6-(4-propan-2-yl-pyrimidin-5-yl)-pyridine-4-carboxamide], for which the Kb stood at 120 nM.
As for `CC(C)c1ncncc1-c1cc(C(=O)NC(C)(C)C)cc(-c2ccc(C(F)(F)F)cc2)n1` [Example 3, N-tert-Butyl-2-(4-propan-2-yl-pyrimidin-5-yl)-6-[4-(trifluoromethyl)-phenyl]-pyridine-4-carboxamide], the Kb was determined as 110 nM.
`Cc1ccncc1-c1cc(C(=O)NC(C)(C)C)cc(-c2ccc(F)cc2)n1` [Example 4, N-tert-Butyl-2-(4-fluorophenyl)-6-(4-methylpyridin-3-yl)-pyridine-4-carboxamide]: the Kb turned out to be 260 nM.
Molecule `Cc1ccncc1-c1cc(C(=O)NC(C)(C)C)cc(-c2ccc(Cl)cc2)n1` [Example 5, N-tert-Butyl-2-(4-chlorophenyl)-6-(4-methylpyridin-3-yl)-pyridine-4-carboxamide] came in with a Kb of 220 nM.
The molecule `Cc1ccc(-c2cc(C(=O)NC(C)(C)C)cc(-c3cncnc3C(C)C)n2)cc1` [Example 6, N-tert-Butyl-2-(4-methylphenyl)-6-(4-propan-2-yl-pyrimidin-5-yl)-pyridine-4-carboxamide] yielded a Kb of 140 nM.
`CC(C)c1ncncc1-c1cc(C(=O)NC(C)(C)C)cc(-c2ccc(F)c(F)c2)n1` [Example 7, N-tert-Butyl-2-(3,4-difluorophenyl)-6-(4-propan-2-yl-pyrimidin-5-yl)-pyridine-4-carboxamide] displayed a Kb of 110 nM.
In the case of `Cc1cc(-c2cc(C(=O)NC(C)(C)C)cc(-c3cncnc3C(C)C)n2)ccc1F` [Example 8, N-tert-Butyl-2-(4-fluoro-3-methylphenyl)-6-(4-propan-2-yl-pyrimidin-5-yl)-pyridine-4-carboxamide], the Kb amounted to 260 nM.
For `CC(C)c1ncncc1-c1cc(C(=O)NC(C)(C)C)cc(-c2ccc(Cl)c(F)c2)n1` [Example 9, N-tert-Butyl-2-(4-chloro-3-fluorophenyl)-6-(4-propan-2-yl-pyrimidin-5-yl)-pyridine-4-carboxamide], the Kb worked out at 260 nM.
`CC(C)c1ncncc1-c1cc(C(=O)NC(C)(C)C)cc(-c2ccc(C3CC3)cc2)n1` [Example 10, N-tert-Butyl-2-(4-cyclopropyl-phenyl)-6-(4-propan-2-yl-pyrimidin-5-yl)-pyridine-4-carboxamide] returned a Kb of 290 nM.
For `CC(C)c1ncncc1-c1cc(C(=O)NC(C)(C)C2CC2)cc(-c2ccc(Cl)cc2)n1` [Example 11, 2-(4-Chlorophenyl)-N-(2-cyclopropyl-propan-2-yl)-6-(4-propan-2-yl-pyrimidin-5-yl)-pyridine-4-carboxamide], the Kb worked out at 150 nM.
With `CC(C)c1ncncc1-c1cc(C(=O)NC(C)(C)C#N)cc(-c2ccc(Cl)cc2)n1` [Example 12, 2-(4-Chlorophenyl)-N-(2-cyanopropan-2-yl)-6-(4-propan-2-yl-pyrimidin-5-yl)-pyridine-4-carboxamide], the Kb worked out at 470 nM.
In turn, `CC(C)c1ncncc1-c1cc(C(=O)NC(C)(C)CO)cc(-c2ccc(Cl)cc2)n1` [Example 13, 2-(4-Chlorophenyl)-N-(1-hydroxy-2-methylpropan-2-yl)-6-(4-propan-2-yl-pyrimidin-5-yl)-pyridine-4-carboxamide] registered a Kb of 200 nM.
On to `CC(C)c1ncncc1-c1cc(C(=O)NC(C)(C)C(F)(F)F)cc(-c2ccc(Cl)cc2)n1` [Example 14, 2-(4-Chlorophenyl)-6-(4-propan-2-yl-pyrimidin-5-yl)-N-(1,1,1-trifluoro-2-methylpropan-2-yl)-pyridine-4-carboxamide], for which the Kb was 270 nM.
As for `COc1ccc(-c2cc(C(=O)NC(C)(C)C)cc(-c3cncnc3C(C)C)n2)cc1` [Example 15, N-tert-Butyl-2-(4-methoxyphenyl)-6-(4-propan-2-yl-pyrimidin-5-yl)-pyridine-4-carboxamide], the Kb worked out at 310 nM.
`Cc1ccc(-c2cc(C(=O)NC(C)(C)C)cc(-c3cncnc3C(C)C)n2)cc1F` [Example 16, N-tert-Butyl-2-(3-fluoro-4-methylphenyl)-6-(4-propan-2-yl-pyrimidin-5-yl)-pyridine-4-carboxamide] gave a Kb of 250 nM.
The molecule `CCC(C)(C)NC(=O)c1cc(-c2ccc(F)cc2)nc(-c2cncnc2C(C)C)c1` [Example 18, 2-(4-Fluorophenyl)-N-(2-methylbutan-2-yl)-6-(4-propan-2-yl-pyrimidin-5-yl)-pyridine-4-carboxamide] had a Kb of 120 nM.
As to `CCc1ncncc1-c1cc(C(=O)NC(C)(C)C)cc(-c2ccc(F)cc2)n1` [Example 19, N-tert-Butyl-2-(4-ethyl-pyrimidin-5-yl)-6-(4-fluorophenyl)-pyridine-4-carboxamide], the antagonist equilibrium constant (Kb) stood at 180 nM.
The same measure, in the same setting: for `Cc1ncncc1-c1cc(C(=O)NC(C)(C)C)cc(-c2ccc(F)cc2)n1` [Example 20, N-tert-Butyl-2-(4-fluorophenyl)-6-(4-methylpyrimidin-5-yl)-pyridine-4-carboxamide] the value was 480 nM; for `CC(C)(C)NC(=O)c1cc(-c2ccc(F)cc2)nc(-c2cncnc2C2CC2)c1` [Example 21, N-tert-Butyl-2-(4-cyclopropylpyrimidin-5-yl)-6-(4-fluorophenyl)-pyridine-4-carboxamide], 560 nM; for `CC(C)(C)NC(=O)c1cc(-c2ccc(F)cc2)nc(-c2cncnc2C(C)(C)C)c1` [Example 22, N-tert-Butyl-2-(4-tert-butyl-pyrimidin-5-yl)-6-(4-fluorophenyl)-pyridine-4-carboxamide], 63 nM.
The molecule `CC(C)(C)NC(=O)c1cc(-c2ccc(Cl)cc2)nc(-c2cncnc2C(C)(C)C)c1` [Example 23, N-tert-Butyl-2-(4-tert-butylpyrimidin-5-yl)-6-(4-chlorophenyl)-pyridine-4-carboxamide] displayed a Kb of 140 nM.
Consider `CC(C)(C)NC(=O)c1cc(-c2ccc(C(F)(F)F)cc2)nc(-c2cncnc2C(C)(C)C)c1` [Example 24, N-tert-Butyl-2-(4-tert-butyl-pyrimidin-5-yl)-6-[4-(trifluoromethyl)-phenyl]-pyridine-4-carboxamide], for which the Kb is 290 nM.
For `CC(C)c1ccncc1-c1cc(C(=O)NC(C)(C)C)cc(-c2ccc(C(F)(F)F)cc2)n1` [Example 25, N-tert-Butyl-2-(4-propan-2-yl-pyridin-3-yl)-6-[4-(trifluoromethyl)-phenyl]-pyridine-4-carboxamide], the antagonist equilibrium constant (Kb) stood at 350 nM.
`CC(C)c1ccncc1-c1cc(C(=O)NC(C)(C)C)cc(-c2ccc(Cl)cc2)n1` [Example 26, N-tert-Butyl-2-(4-chlorophenyl)-6-(4-propan-2-yl-pyridin-3-yl)-pyridine-4-carboxamide] came in with a Kb of 310 nM.
The molecule `CC(C)c1ccncc1-c1cc(C(=O)NC(C)(C)C)cc(-c2ccc(F)cc2)n1` [Example 27, N-tert-Butyl-2-(4-fluorophenyl)-6-(4-propan-2-yl-pyridin-3-yl)-pyridine-4-carboxamide] registered a Kb of 170 nM.

Test system in a further data set: not given
Experiment: not given
Conditions: not given
`CC(C)c1ncncc1-c1cc(C(=O)NC(C)(C)C)cc(-c2ccc(F)c(F)c2)n1` [Example 7, N-tert-Butyl-2-(3,4-difluorophenyl)-6-(4-propan-2-yl-pyrimidin-5-yl)-pyridine-4-carboxamide] came in with a melting point of 178 °C.
